Earlier results, collected in patent US7989624B2, “Aryl spirolactam CGRP receptor antagonists” (Merck Sharp & Dohme Corp., priority 2004, dated 2011).
Where no end group is shown, it is not given here.

Legend:
[1] = test system: migraine; conditions: clinical studies, intravenously administered
[2] = test system: marmoset; conditions: electrical stimulation of the trigeminal ganglion
[3] = test system: rat; conditions: trigeminal ganglion stimulation
[4] = test system: rats; conditions: electrical stimulation of the dura mater, prior administration

For `NCCCC[C@H](NC(=O)[C@@H](Cc1cc(Br)c(O)c(Br)c1)NC(=O)N1CCC(N2Cc3ccccc3NC2=O)CC1)C(=O)N1CCN(c2ccncc2)CC1` [BIBN4096BS], the “acute treatment for migraine” value [1] is listed as “safe and effective” and the “increase in facial blood flow” value [2] is listed as “could be blocked”.
For “CGRP(8-37): a fragment of CGRP that lacks seven N-terminal amino acid residues; a peptide CGRP antagonist (VTHRLAGLLSRSGGVVKNNFVPTNVGSKAF; ends and bridges not checked; UniProt P06881 90-119, looked up, fragment)”, the “increased facial blood flow” value [3] is listed as “inhibited” and the “increase of the diameter of the middle meningeal artery” value [4] is listed as “blocked”.
